Source: patent US3965109A, “Certain aryl amino pyridines” (priority 1971, dated 1976)

Columns and labels:
[1] = system: Puccinia recondita (wheat); test: Fungicidal test against foliar disease A (foliage spray plus soil drench); assay type: in vivo; details: 100 ppm spray and drench; 10 days
[2] = system: Plasmopara viticola (vine); test: Fungicidal test against foliar disease C (foliage spray plus soil drench); assay type: in vivo; details: 100 ppm spray and drench; 10 days
[3] = system: Uncinula necator (vine); test: Fungicidal test against foliar disease D (foliage spray plus soil drench); assay type: in vivo; details: 100 ppm spray and drench; 10 days
[4] = system: Tetranychus telarius (red spider mites, adults); test: Pest toxicity test; assay type: in vivo; details: 0.1% by weight; French bean; 3 days
[5] = system: Tetranychus telarius (red spider mites, eggs); test: Pest toxicity test; assay type: in vivo; details: 0.1% by weight; French bean; 3 days
[6] = system: Aphis fabae; test: Pest toxicity test; assay type: in vivo; details: 0.1% by weight; broad bean; 2 days
[7] = system: Megoura viceae; test: Pest toxicity test; assay type: in vivo; details: 0.1% by weight; broad bean; 2 days
[8] = system: Aedes aegypti (mosquito larvae); test: Pest toxicity test; assay type: in vivo; details: 0.01% by weight; water; 1 day
[9] = system: Aedes aegypti (mosquito adults); test: Pest toxicity test; assay type: in vivo; details: 0.01% by weight; plywood; 1 day
[10] = system: Musca domestica (houseflies); test: Pest toxicity test, contact test; assay type: in vivo; details: 0.1% by weight; milk/sugar; 2 days; flies sprayed directly
[11] = system: Pieris brassicae (cabbage white caterpillars); test: Pest toxicity test; assay type: in vivo; details: 0.1% by weight, 2 days
[12] = system: Plutella maculipennis (diamond back moth larvae); test: Pest toxicity test; assay type: in vivo; details: in vivo
[13] = system: Phaedon cochleariae (mustard beetles); test: Pest toxicity test; assay type: in vivo; details: in vivo
[14] = system: Agriolimax reticulatus (slugs); test: Molluscicidal activity test; assay type: in vivo, Agriolimax reticulatus (Mull); details: pellet with 4% by weight; 6 days; 10°C
Protocol: A weighed sample of the compound under test was dissolved in 0.5 c.c. of an ethanol and acetone mixture 50:50 v/v). The solution was diluted with 0.5 cc water and poured onto a calf feeding pellet in a glass Petri dish. The pellet was then air dried for 24 hours. The weight of compound used was chosen so that the dried pellet contained 4% by weight of the active ingredient. Two replicates each consisting of a plastic Petri dish containing a pellet, 2 slugs, and a moistened filter paper to maintain a high relative humidity were used in each test. The dishes were left in a cold room (10°C.) After 6 days the kill was assessed.
The slugs used were Agriolimax reticulatus (Mull), and they had been starved for 24 hours before the commencement of the tests.

[15] = system: Lettuce; test: Herbicidal test, pre- and post-emergence; assay type: in vivo; details: 10 kg/ha; scale 0 to 3 (complete kill)
[16] = system: Tomato; test: Herbicidal test, pre- and post-emergence; assay type: in vivo; details: 10 kg/ha; scale 0 to 3 (complete kill)
[17] = system: Wheat; test: Herbicidal test, pre- and post-emergence; assay type: in vivo; details: 10 kg/ha; scale 0 to 3 (complete kill)
[18] = system: Maize; test: Herbicidal test, pre- and post-emergence; assay type: in vivo; details: 10 kg/ha; scale 0 to 3 (complete kill)
[19] = system: Sugar beet; test: Further herbicidal test, various rates; assay type: in vivo; details: 5 kg/hectare; scale 0 to 5 (complete kill)
[20] = system: Kale; test: Further herbicidal test, various rates; assay type: in vivo; details: 5 kg/hectare; scale 0 to 5 (complete kill)
[21] = system: Carrot; test: Further herbicidal test, various rates; assay type: in vivo; details: 5 kg/hectare; scale 0 to 5 (complete kill)
[22] = system: Pea; test: Further herbicidal test, various rates; assay type: in vivo; details: 5 kg/hectare; scale 0 to 5 (complete kill)
[23] = system: Onion; test: Further herbicidal test, various rates; assay type: in vivo; details: 5 kg/hectare; scale 0 to 5 (complete kill)
[24] = system: Barley; test: Further herbicidal test, various rates; assay type: in vivo; details: 5 kg/hectare; scale 0 to 5 (complete kill)
[25] = system: Rice; test: Further herbicidal test, various rates; assay type: in vivo; details: 5 kg/hectare; scale 0 to 5 (complete kill)
[26] = system: Oat; test: Further herbicidal test, various rates; assay type: in vivo; details: 5 kg/hectare; scale 0 to 5 (complete kill)
[27] = system: Piricularia oryzae (rice); assay type: in vivo; details: 100 ppm spray and drench; 7 days

| Structure (SMILES) | Amount of disease grading, disease A (Table 4) [1] | Mortality grading (kill) [4] | Mortality grading (kill) [5] | Mortality grading (kill) [6] | Mortality grading (kill) [7] | Mortality grading (kill) [8] | Mortality grading (kill) [9] | Mortality grading (kill), contact test [10] | Mortality grading (kill) [11] | Mortality grading (kill) [12] | Mortality grading (kill) [13] | % Kill of slugs [14] | Damage to plants, post-emergence [15] | Damage to plants, pre-emergence [15] | Damage to plants, post-emergence [16] | Damage to plants, pre-emergence [16] | Damage to plants, post-emergence [17] | Damage to plants, pre-emergence [17] | Damage to plants, post-emergence [18] | Damage to plants, pre-emergence [18] | also measured |
| --- | --- | --- | --- | --- | --- | --- | --- | --- | --- | --- | --- | --- | --- | --- | --- | --- | --- | --- | --- | --- | --- |
| O=[N+]([O-])c1cc(Cl)c(Nc2c(Cl)c(F)nc(F)c2Cl)c(Cl)c1 [Compound 27, 3,5-Dichloro-2,6-difluoro-4(2,6-dichloro-4-nitroanilino)pyridine] | 0 (61 to 100) | 3 (3 represents over 90% kill) | 3 (3 represents over 90% kill) | 3 (3 represents over 90% kill) | 3 (3 represents over 90% kill) | 3 (3 represents over 90% kill) | 2 (2 represents 60 - 90% kill) | 3 (3 represents over 90% kill) | 0 (O represents less than 30% kill) | 0 (key: O represents less than 30% kill; 1 represents 30 - 49% kill; 2 represents 60 - 90% kill; 3 represents over 90% kill; C indicates a chemosterilant effect.; A indicates an antifeeding effect.) | 0 (key: O represents less than 30% kill; 1 represents 30 - 49% kill; 2 represents 60 - 90% kill; 3 represents over 90% kill; C indicates a chemosterilant effect.; A indicates an antifeeding effect.) | 100% | 3 | 3 | 1 | 3 | 0 | 0 | 0 | 0 | Amount of disease grading, disease C (Table 4) [2]: 3 (0 to 5); Amount of disease grading, disease D (Table 4) [3]: 3 (0 to 5); Damage to plants, pre-emergence [19]: 4; Damage to plants, pre-emergence [20]: 4; Damage to plants, pre-emergence [21]: 4; Damage to plants, pre-emergence [22]: 3; Damage to plants, pre-emergence [23]: 0; Damage to plants, pre-emergence [24]: 0; Damage to plants, pre-emergence [25]: 0; Damage to plants, pre-emergence [26]: 0 |
| N#Cc1c(F)c(F)c(Nc2c(Cl)c(Cl)nc(Cl)c2Cl)c(F)c1F [Compound 42, 4(4-Cyano-2,3,5,6-tetrafluoroanilino)tetrachloropyridine] | 3 (0 to 5) | 3 (3 represents over 90% kill) | 3 (3 represents over 90% kill) | 3 (3 represents over 90% kill) | 3 (3 represents over 90% kill) | 3 (3 represents over 90% kill) | 0 (O represents less than 30% kill) | 3 (3 represents over 90% kill) | 3 (3 represents over 90% kill) | 0 (key: O represents less than 30% kill; 1 represents 30 - 49% kill; 2 represents 60 - 90% kill; 3 represents over 90% kill; C indicates a chemosterilant effect.; A indicates an antifeeding effect.) | 0 (key: O represents less than 30% kill; 1 represents 30 - 49% kill; 2 represents 60 - 90% kill; 3 represents over 90% kill; C indicates a chemosterilant effect.; A indicates an antifeeding effect.) | 50% | 2 | 3 | 3 | 3 | 0 | 3 | 0 | 3 | Amount of disease grading, disease E (Table 4) [27]: 0 (61 to 100); Damage to plants, post-emergence [19]: 5; Damage to plants, pre-emergence [19]: 5; Damage to plants, post-emergence [20]: 5; Damage to plants, pre-emergence [20]: 4; Damage to plants, post-emergence [21]: 5; Damage to plants, pre-emergence [21]: 5; Damage to plants, post-emergence [22]: 1; Damage to plants, pre-emergence [22]: 2; Damage to plants, pre-emergence [23]: 5; Damage to plants, post-emergence [24]: 1; Damage to plants, pre-emergence [24]: 3; Damage to plants, post-emergence [25]: 0; Damage to plants, pre-emergence [25]: 3; Damage to plants, post-emergence [26]: 4; Damage to plants, pre-emergence [26]: 4 |
